Assay results: PubChem BioAssay (NCI)
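The compound was tested at five concentrations on cells cultured in 96-well plates, with a 48-hour exposure period. The concentration for 50% growth inhibition is given as GI50. TGI marks complete inhibition of growth.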

Key:
Assay in all cases: NCI tumour cell line growth inhibition, 48 h
OVCAR-4 ovarian = test system: OVCAR-4 ovarian
IGROV1 ovarian = test system: IGROV1 ovarian
NCI-H23 lung = test system: NCI-H23 lung
UACC-257 melanoma = test system: UACC-257 melanoma
SNB-75 CNS = test system: SNB-75 CNS
EKVX NSCLC = test system: EKVX NSCLC
SK-MEL-5 melanoma = test system: SK-MEL-5 melanoma
A549 NSCLC = test system: A549 NSCLC
TK-10 renal = test system: TK-10 renal
HCT-116 colon = test system: HCT-116 colon

Structure (SMILES)	TGI (OVCAR-4 ovarian) [µM]	TGI (IGROV1 ovarian) [µM]	TGI (NCI-H23 lung) [µM]	TGI (UACC-257 melanoma) [µM]	TGI (SNB-75 CNS) [µM]	TGI (EKVX NSCLC) [µM]	TGI (SK-MEL-5 melanoma) [µM]	TGI (A549 NSCLC) [µM]	TGI (TK-10 renal) [µM]	TGI (HCT-116 colon) [µM]	GI50 (OVCAR-4 ovarian) [µM]	GI50 (IGROV1 ovarian) [µM]	GI50 (NCI-H23 lung) [µM]	GI50 (UACC-257 melanoma) [µM]	GI50 (SNB-75 CNS) [µM]	GI50 (EKVX NSCLC) [µM]	GI50 (SK-MEL-5 melanoma) [µM]	GI50 (A549 NSCLC) [µM]	GI50 (TK-10 renal) [µM]	GI50 (HCT-116 colon) [µM]
CCCc1ccc(OCC(=O)N/N=C/c2c(-c3ccccc3)[nH]c3ccccc23)cc1	42.7	65.8	38.2	33.7	58.6	92.8	20.8	> 100	63.8	27.7	–	–	–	–	–	–	–	–	–	–
CC(O)=NC(Cc1ccc2ccccc2c1)C(O)=NC(Cc1ccc(Cl)cc1)C(O)=NC(Cc1c[nH]c2ccccc12)C(O)=NC(CO)C(O)=NC(Cc1ccc(O)cc1)C(O)=NC(CCCN=C(N)N)C(O)=NC(CC(C)C)C(O)=NC(CCCN=C(N)N)C(=O)N1CCCC1C(O)=NC(C)C(=N)O (stereo not drawn)	> 100	> 100	> 100	> 100	> 100	> 100	> 100	> 100	> 100	–	–	–	–	–	–	–	–	–	–	–
CCOC(=O)[C@H]1C[C@]23CN(C(=O)OC(C)(C)C)CC[C@H]2CCC2(SCCCS2)[C@@H]3N1C	74.2	> 100	> 100	77.5	> 100	90.4	37.4	> 100	81.2	> 100	–	–	–	–	–	–	–	–	–	–
C[n+]1c(-c2ccc(/C=N\NC(=O)c3ccc(C(=O)N/N=C/c4ccc(-c5cn6ccsc6[n+]5C)cc4)cc3)cc2)cn2ccsc21	57.8	40.7	50.9	54.9	46.7	34.3	34	57.8	40.3	–	–	–	–	–	–	–	–	–	–	–
CS(=O)(=O)OCc1c(O)c2c(c(O)c1COS(C)(=O)=O)C(=O)C=CC2=O	> 100	> 100	> 100	> 100	> 100	> 100	> 100	> 100	> 100	> 100	–	–	–	–	–	–	–	–	–	–
C=C1C(=O)OC2/C=C(\C)CC(O)/C=C(/CO)CC(OC(=O)/C(C)=C/C)C12 (stereo not drawn)	319	121	136	202	417	59.1	44.1	451	–	115	–	–	–	–	–	–	–	–	–	–
O=C(Nc1ccc(F)cc1)c1cc2ccc(O)cc2oc1=Nc1ccccc1F	> 100	36.1	13.6	> 100	–	40.8	35.2	–	–	> 100	–	–	–	–	–	–	–	–	–	–
CC[N+](CC)(CC)/C(=N/S(=O)(=O)c1cc(C)c(Cl)cc1S)[N-]S(=O)(=O)c1ccc(Cl)cc1	> 100	> 100	> 100	> 100	–	> 100	> 100	–	> 100	65.6	–	–	–	–	–	–	–	–	–	–
C[C@H](O)C(=O)SC[C@H](NC(=O)CC[C@@H](N)C(=O)O)C(=O)NCC(=O)O	> 100	> 100	> 100	> 100	> 100	> 100	> 100	–	> 100	> 100	–	–	–	–	–	–	–	–	–	–
O=C(CCO)OCCCCCC/C=C\CCCCCC/C=C\CCCCCCCCOC(=O)CCO	55.9	31.2	31.8	30.9	34	32.3	> 100	29.6	31.5	29.9	–	–	–	–	–	–	–	–	–	–
CC(C)Cc1cccc(C(C)C)c1NC(=O)CCC(=O)N/N=C1\C(=N/NC(=O)CCC(=O)Nc2c(C(C)C)cccc2C(C)C)C(c2ccc3c(c2)OCO3)Oc2ccccc21 (stereo not drawn)	> 100	> 100	> 100	> 100	> 100	> 100	> 100	> 100	> 100	> 100	–	–	–	–	–	–	–	–	–	–
Cc1ccc(S(=O)(=O)NCCSS(=O)(=O)c2ccc(C)cc2)cc1	> 100	–	> 100	> 100	77.2	–	43.1	63.5	> 100	28.3	–	–	–	–	–	–	–	–	–	–
OC1(c2ccc3ccccc3c2)c2ccc3ccccc3c2C2=NCCN21 (stereo not drawn)	85.8	> 100	> 100	> 100	46.9	> 100	> 100	> 100	> 100	> 100	–	–	–	–	–	–	–	–	–	–
O=c1cc(-c2nc3ccccc3[nH]2)[nH]c2nc(-c3nc4ccccc4[nH]3)cc(-c3ccc(Cl)cc3)c12	95.4	25.5	> 100	69.3	–	> 100	30.9	87.2	49	35.2	–	–	–	–	–	–	–	–	–	–
Cc1onc(-c2c(F)cccc2Cl)c1C(=O)N[C@@H]1C(=O)N2[C@@H]1SC(C)(C)[C@@H]2C(=O)O	> 100	> 100	> 100	> 100	> 100	> 100	> 100	> 100	> 100	> 100	–	–	–	–	–	–	–	–	–	–
Cc1cc(-c2nc3cc(F)ccc3s2)ccc1NC(=O)C(C)N (stereo not drawn)	8.18	4.76	6.24	8.88	10.6	7.03	13.6	7.72	2.93	6.57	–	–	–	–	–	–	–	–	–	–
COc1cc(NCc2ccc3n2-c2ccccc2OC3)cc(OC)c1OC	55.5	70.5	> 100	64.1	62.4	45.1	32.3	> 100	> 100	> 100	–	–	–	–	–	–	–	–	–	–
CCCC(=O)OCC(O)CO (stereo not drawn)	> 5000	> 5000	> 5000	> 5000	> 5000	–	> 5000	> 5000	> 5000	> 5000	–	–	–	–	–	–	–	–	–	–
ClCC1(CCl)COC1	> 100	–	> 100	> 100	> 100	–	> 100	> 100	> 100	> 100	–	–	–	–	–	–	–	–	–	–
NC(N)=N/N=C/c1ccc(O)c(C(=O)O)c1	> 100	> 100	> 100	> 100	> 100	–	> 100	> 100	> 100	> 100	–	–	–	–	–	–	–	–	–	–
O=C(/N=C/c1c(O)c2ccccc2oc1=O)NC1CCCCC1	> 100	> 100	> 100	> 100	–	> 100	> 100	> 100	> 100	> 100	–	–	–	–	–	–	–	–	–	–
CCOc1ccc2c(c1)NC(=O)C(C1OC(c3ccccc3)=CC1=O)S2 (stereo not drawn)	–	53.2	94.2	> 100	–	62.3	39.2	46.8	> 100	88.2	–	–	–	–	–	–	–	–	–	–
COc1ccc(-n2cc(-c3ccc(OC)c(OC)c3)nc2SCc2ccccc2)cc1Cl	> 100	> 100	> 100	38.3	> 100	64.7	18.6	> 100	> 100	> 100	20.1	12.9	22.7	7.23	27.4	13.8	5.78	21.3	29.5	9.43
C=CCC1=CC2(OC)C(=O)C(OC)(OC)C1C1C(OC)(OC)C(=O)C(OC)=CC12CC=C (stereo not drawn)	> 100	> 100	> 100	> 100	> 100	> 100	> 100	> 100	> 100	> 100	–	–	–	–	–	–	–	–	–	–
NC1=NS(=O)(=O)Nc2nc(-c3cccs3)[nH]c21	> 100	> 100	> 100	–	> 100	–	> 100	> 100	> 100	> 100	–	–	–	–	–	–	–	–	–	–
CCOc1cc(NC(C)=O)ccc1C(=O)NN1C(=O)CSC1c1ccc(O)c(OC)c1 (stereo not drawn)	> 100	> 100	> 100	> 100	> 100	> 100	> 100	> 100	39.3	> 100	–	–	–	–	–	–	–	–	–	–
FC(F)(F)C1=NC(=NNc2nnc(-c3ccccc3)c(-c3ccccc3)n2)N=C(C(F)(F)F)C1	> 100	> 100	> 100	> 100	> 100	> 100	> 66	> 100	–	> 93.6	–	–	–	–	–	–	–	–	–	–
CO[C@]12C[C@H](CNC(=O)c3cc(Br)c(Br)[nH]3)O[C@H]1NC(=O)N2	> 100	> 100	> 100	> 100	> 100	> 100	> 100	> 100	> 100	> 100	–	–	–	–	–	–	–	–	–	–
